Measurements taken from ChEMBL document CHEMBL3352542, “Synthesis, biological evaluation and molecular modeling study of 2-(1,3,4-thiadiazolyl-thio and 4-methyl-thiazolyl-thio)-quinazolin-4-ones as a new class of DHFR inhibitors” (Bioorg Med Chem Lett, 2014).
Calls of active or inactive are those of the source. No cut-off for these calls is given here.

Experiments:
Dihydrofolate reductase = molecular target: T1, Dihydrofolate reductase (Bos taurus, UniProt P00376); assay: Inhibition of bovine liver DHFR
T1 sequence (P00376 whole entry): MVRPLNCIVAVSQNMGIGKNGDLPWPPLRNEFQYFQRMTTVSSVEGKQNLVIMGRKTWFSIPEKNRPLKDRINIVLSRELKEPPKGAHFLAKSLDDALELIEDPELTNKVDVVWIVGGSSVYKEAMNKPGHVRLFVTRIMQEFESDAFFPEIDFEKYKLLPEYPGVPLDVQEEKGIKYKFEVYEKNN

Staphylococcus aureus [1] = assay: Antimicrobial activity against Staphylococcus aureus assessed as inhibition zone at 200 ug/disk after 24 hrs by disc-diffusion method; format: functional; conditions: read-out: IZ
Bacillus subtilis [2] = assay: Antimicrobial activity against Bacillus subtilis assessed as inhibition zone at 200 ug/disk after 24 hrs by disc-diffusion method; format: functional; conditions: read-out: IZ
Escherichia coli [3] = assay: Antimicrobial activity against Escherichia coli assessed as inhibition zone at 200 ug/disk after 24 hrs by disc-diffusion method; format: functional; conditions: read-out: IZ
Pseudomonas aeruginosa = assay: Antimicrobial activity against Pseudomonas aeruginosa assessed as inhibition zone at 200 ug/disk after 24 hrs by disc-diffusion method; format: functional; conditions: read-out: IZ
Candida albicans = assay: Antimicrobial activity against Candida albicans assessed as inhibition zone at 200 ug/disk after 24 hrs by disc-diffusion method; format: functional; conditions: read-out: IZ
HL-60(TB) = assay: Growth inhibition of human HL-60(TB) cells at 10 uM after 48 hrs; format: functional
SR = assay: Growth inhibition of human SR cells at 10 uM after 48 hrs; format: functional
[4] = (§1) Growth inhibition of human HOP92 cells at 10 uM after 48 hrs; format: functional; conditions: HOP-92, 48 h, read-out: GI
[5] = (§2) Growth inhibition of human HCT116 cells at 10 uM after 48 hrs; format: functional; conditions: HCT-116, 48 h, read-out: GI
[6] = (§3) Growth inhibition of human SF539 cells at 10 uM after 48 hrs; format: functional; conditions: SF-539, 48 h, read-out: GI
[7] = (§4) Growth inhibition of human UACC62 cells at 10 uM after 48 hrs; format: functional; conditions: UACC-62, 48 h, read-out: GI
A498 = assay: Growth inhibition of human A498 cells at 10 uM after 48 hrs; format: functional; conditions: for inhibition of growth at 10 µM: A498, 48 h, read-out: GI
CAKI-1 = assay: Growth inhibition of human CAKI-1 cells at 10 uM after 48 hrs; format: functional
[8] = (§5) Growth inhibition of human RXF393 cells at 10 uM after 48 hrs; format: functional; conditions: RXF 393, 48 h, read-out: GI
[9] = (§6) Growth inhibition of human UO31 cells at 10 uM after 48 hrs; format: functional; conditions: UO-31, 48 h, read-out: GI
[10] = (§7) Growth inhibition of human PC3 cells at 10 uM after 48 hrs; format: functional; conditions: PC-3, 48 h, read-out: GI
MDA-MB-231 = assay: Growth inhibition of human MDA-MB-231 cells at 10 uM after 48 hrs; format: functional
Staphylococcus aureus [11] = assay: Antimicrobial activity against Staphylococcus aureus assessed as inhibition of visible growth after 24 hrs by disc-diffusion method; format: functional, organism-based
Bacillus subtilis [12] = assay: Antimicrobial activity against Bacillus subtilis assessed as inhibition of visible growth after 24 hrs by disc-diffusion method; format: functional, organism-based
Escherichia coli [13] = assay: Antimicrobial activity against Escherichia coli assessed as inhibition of visible growth after 24 hrs by disc-diffusion method; format: functional, organism-based
[14] = (§8) Growth inhibition of human RPMI8226 cells at 10 uM after 48 hrs; format: functional; conditions: RPMI-8226, 48 h, read-out: GI
A549 = assay: Growth inhibition of human A549 cells at 10 uM after 48 hrs; format: functional
[15] = (§9) Growth inhibition of human HCT15 cells at 10 uM after 48 hrs; format: functional; conditions: HCT-15, 48 h, read-out: GI
[16] = (§10) Growth inhibition of human SF295 cells at 10 uM after 48 hrs; format: functional; conditions: SF-295, 48 h, read-out: GI
U-251 = assay: Growth inhibition of human U251 cells at 10 uM after 48 hrs; format: functional
MDA-MB-435 = assay: Growth inhibition of human MDA-MB-435 cells at 10 uM after 48 hrs; format: functional
SK-MEL-5 = assay: Growth inhibition of human SK-MEL-5 cells at 10 uM after 48 hrs; format: functional
[17] = (§11) Growth inhibition of human UACC257 cells at 10 uM after 48 hrs; format: functional; conditions: UACC-257, 48 h, read-out: GI
786-0 = assay: Growth inhibition of human 786-0 cells at 10 uM after 48 hrs; format: functional
MCF7 = assay: Growth inhibition of human MCF7 cells at 10 uM after 48 hrs; format: functional
[18] = (§12) Growth inhibition of human Hs 578T cells at 10 uM after 48 hrs; format: functional; conditions: read-out: GI
T47D = assay: Growth inhibition of human T47D cells at 10 uM after 48 hrs; format: functional
HOP-62 = assay: Growth inhibition of human HOP62 cells at 10 uM after 48 hrs; format: functional
CCRF-CEM = assay: Growth inhibition of human CCRF-CEM cells at 10 uM after 48 hrs; format: functional
K562 = assay: Growth inhibition of human K562 cells at 10 uM after 48 hrs; format: functional
MOLT-4 = assay: Growth inhibition of human MOLT4 cells at 10 uM after 48 hrs; format: functional
RPMI-8226 = assay: as §8; format: functional
HOP-92 = assay: as §1; format: functional
NCI-H226 = assay: Growth inhibition of human NCI-H226 cells at 10 uM after 48 hrs; format: functional
NCI-H522 = assay: Growth inhibition of human NCI-H522 cells at 10 uM after 48 hrs; format: functional
HCT-116 = assay: as §2; format: functional
HCT-15 = assay: as §9; format: functional
HT-29 = assay: Growth inhibition of human HT-29 cells at 10 uM after 48 hrs; format: functional
KM12 = assay: Growth inhibition of human KM12 cells at 10 uM after 48 hrs; format: functional
SF-295 = assay: as §10; format: functional
SF-539 = assay: as §3; format: functional
SNB-19 = assay: Growth inhibition of human SNB19 cells at 10 uM after 48 hrs; format: functional
Malme-3M = assay: Growth inhibition of human MALME-3M cells at 10 uM after 48 hrs; format: functional
UACC-257 = assay: as §11; format: functional
UACC-62 = assay: as §4; format: functional
OVCAR-4 = assay: Growth inhibition of human OVCAR4 cells at 10 uM after 48 hrs; format: functional
RXF 393 = assay: as §5; format: functional
UO-31 = assay: as §6; format: functional
PC-3 = assay: as §7; format: functional
Hs-578T = assay: as §12; format: functional
MDA-MB-468 = assay: Growth inhibition of human MDA-MB-468 cells at 10 uM after 48 hrs; format: functional
SK-MEL-28 = assay: Growth inhibition of human SK-MEL-28 cells at 10 uM after 48 hrs; format: functional, cell-based

## Cc1ccc(-n2c(Sc3nnc(N)s3)nc3ccc(C)cc3c2=O)cc1
Dihydrofolate reductase
  IC50: 8000 nM
Staphylococcus aureus [1]
  zone of inhibition at 200 µg/disc: 8 mm
Bacillus subtilis [2]
  zone of inhibition at 200 µg/disc: 8 mm
Escherichia coli [3]
  zone of inhibition at 200 µg/disc: 8 mm
Pseudomonas aeruginosa
  zone of inhibition at 200 µg/disc: 8 mm
Candida albicans
  zone of inhibition at 200 µg/disc: 8 mm
HL-60(TB); HL-60, 48 h, read-out: GI
  inhibition of growth at 10 µM: 28.2%
SR; read-out: GI
  inhibition of growth at 10 µM: 32.7%
[4]
  inhibition of growth at 10 µM: 21.1%
[5]
  inhibition of growth at 10 µM: 11.6%
[6]
  inhibition of growth at 10 µM: 15.6%
[7]
  inhibition of growth at 10 µM: 14.8%
A498
  inhibition of growth at 10 µM: 14.2%
CAKI-1; CAKI-1, 48 h, read-out: GI
  inhibition of growth at 10 µM: 10.4%
[8]
  inhibition of growth at 10 µM: 10.5%
[9]
  inhibition of growth at 10 µM: 23.2%
[10]
  inhibition of growth at 10 µM: 11.8%
MDA-MB-231; MDA-MB-231, 48 h, read-out: GI
  inhibition of growth at 10 µM: 21.9%

## Nc1nnc(Sc2nc3ccc(Cl)cc3c(=O)n2-c2ccc(Cl)cc2)s1
Dihydrofolate reductase
  IC50: 1000 nM
Staphylococcus aureus [1]
  zone of inhibition at 200 µg/disc: 18 mm
Bacillus subtilis [2]
  zone of inhibition at 200 µg/disc: 20 mm
Escherichia coli [3]
  zone of inhibition at 200 µg/disc: 16 mm
Pseudomonas aeruginosa
  zone of inhibition at 200 µg/disc: 12 mm
Candida albicans
  zone of inhibition at 200 µg/disc: 8 mm
Staphylococcus aureus [11]
  Activity: Active
Bacillus subtilis [12]
  Activity: Active
Escherichia coli [13]
  Activity: Active
[14]
  inhibition of growth at 10 µM: 12.1%
A549; A549, 48 h, read-out: GI
  inhibition of growth at 10 µM: 11.1%
[4]
  inhibition of growth at 10 µM: 53.7%
[15]
  inhibition of growth at 10 µM: 12.7%
[16]
  inhibition of growth at 10 µM: 20.6%
U-251; U-251, 48 h, read-out: GI
  inhibition of growth at 10 µM: 11%
MDA-MB-435; MDA-MB-435, 48 h, read-out: GI
  inhibition of growth at 10 µM: 10.8%
SK-MEL-5; SK-MEL-5, 48 h, read-out: GI
  inhibition of growth at 10 µM: 10.9%
[17]
  inhibition of growth at 10 µM: 12.3%
786-0; 786-0, 48 h, read-out: GI
  inhibition of growth at 10 µM: 15.4%
A498
  inhibition of growth at 10 µM: 30.6%
[9]
  inhibition of growth at 10 µM: 24.6%
[10]
  inhibition of growth at 10 µM: 14.1%
MCF7; MCF7, 48 h, read-out: GI
  inhibition of growth at 10 µM: 12.7%
[18]
  inhibition of growth at 10 µM: 13.3%
T47D; read-out: GI
  inhibition of growth at 10 µM: 29.2%
HOP-62; HOP-62, 48 h, read-out: GI
  inhibition of growth at 10 µM: 16.7%

## Cc1ccc2nc(Sc3nnc(N)s3)n(-c3ccc(Cl)cc3)c(=O)c2c1
Dihydrofolate reductase
  IC50: 700 nM
Staphylococcus aureus [1]
  zone of inhibition at 200 µg/disc: 24 mm
Bacillus subtilis [2]
  zone of inhibition at 200 µg/disc: 26 mm
Escherichia coli [3]
  zone of inhibition at 200 µg/disc: 18 mm
Pseudomonas aeruginosa
  zone of inhibition at 200 µg/disc: 12 mm
Candida albicans
  zone of inhibition at 200 µg/disc: 8 mm
Staphylococcus aureus [11]
  Activity: Active
Bacillus subtilis [12]
  Activity: Active
Escherichia coli [13]
  Activity: Active
CCRF-CEM
  growth inhibition (GI): inactive
HL-60(TB)
  growth inhibition (GI): inactive
K562
  growth inhibition (GI): inactive
MOLT-4
  growth inhibition (GI): inactive
RPMI-8226
  growth inhibition (GI): inactive
SR
  growth inhibition (GI): inactive
A549
  growth inhibition (GI): inactive
HOP-92
  growth inhibition (GI): inactive
NCI-H226
  growth inhibition (GI): inactive
NCI-H522
  growth inhibition (GI): inactive
HCT-116
  growth inhibition (GI): inactive
HCT-15
  growth inhibition (GI): inactive
HT-29
  growth inhibition (GI): inactive
KM12
  growth inhibition (GI): inactive
SF-295
  growth inhibition (GI): inactive
SF-539
  growth inhibition (GI): inactive
SNB-19
  growth inhibition (GI): inactive
U-251
  growth inhibition (GI): inactive
Malme-3M
  growth inhibition (GI): inactive
MDA-MB-435
  growth inhibition (GI): inactive
SK-MEL-5
  growth inhibition (GI): inactive
UACC-257
  growth inhibition (GI): inactive
UACC-62
  growth inhibition (GI): inactive
OVCAR-4
  growth inhibition (GI): inactive
786-0
  growth inhibition (GI): inactive
A498
  growth inhibition (GI): inactive
CAKI-1
  growth inhibition (GI): inactive
RXF 393
  growth inhibition (GI): inactive
UO-31
  growth inhibition (GI): inactive
PC-3
  growth inhibition (GI): inactive
MCF7
  growth inhibition (GI): inactive
MDA-MB-231
  growth inhibition (GI): inactive
Hs-578T
  growth inhibition (GI): inactive
T47D
  growth inhibition (GI): inactive
MDA-MB-468
  growth inhibition (GI): inactive
HOP-62
  growth inhibition (GI): inactive
SK-MEL-28
  growth inhibition (GI): inactive
